Assay results as given in ChEMBL document CHEMBL1201861, “Genomics of Drug Sensitity in Cancer screening data, Wellcome Trust Sanger Institute”.

Columns and labels:
Test in all cases: cells
Details in all cases: Homo sapiens
[1] = tested on: COLO-741; assay type: functional, cell-based
Description: SANGER: Inhibition of human COLO-741 cell growth in a cell viability assay.

[2] = tested on: M059J; assay type: functional, cell-based;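 note: growth inhibition of M059J cells, read out with a cell viability assay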
Description: SANGER: Inhibition of human M059J cell growth in a cell viability assay.

[3] = tested on: G-402; assay type: functional, cell-based
Description: SANGER: Inhibition of human G-402 cell growth in a cell viability assay.

[4] = tested on: MeWo; assay type: functional, cell-based;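 note: growth inhibition of MeWo cells, determined by a cell viability readout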
Description: SANGER: Inhibition of human Mewo cell growth in a cell viability assay.

[5] = tested on: LN-405; assay type: functional, cell-based
Description: SANGER: Inhibition of human LN-405 cell growth in a cell viability assay.

[6] = tested on: HCT-116; assay type: functional, cell-based
Description: SANGER: Inhibition of human HCT-116 cell growth in a cell viability assay.

[7] = tested on: IGR-1; assay type: functional, cell-based;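 note: growth inhibition of human IGR-1 cells, read out with a cell viability assay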
Description: SANGER: Inhibition of human IGR-1 cell growth in a cell viability assay.

[8] = tested on: COR-L23; assay type: functional, cell-based;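 note: cell viability assay measuring how strongly compounds suppress growth of COR-L23 cells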
Description: SANGER: Inhibition of human COR-L23 cell growth in a cell viability assay.

[9] = tested on: EW-22; assay type: functional, cell-based;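 note: growth inhibition of the EW-22 cell line, measured with a cell viability readout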
Description: SANGER: Inhibition of human EW-22 cell growth in a cell viability assay.

[10] = tested on: CaR-1; assay type: functional, cell-based;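 note: growth inhibition of human CaR-1 cancer cells, read out with a cell viability assay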
Description: SANGER: Inhibition of human CaR-1 cell growth in a cell viability assay.

[11] = tested on: SK-MEL-24; assay type: functional, cell-based;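 note: growth inhibition read out by a cell viability assay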
Description: SANGER: Inhibition of human SK-MEL-24 cell growth in a cell viability assay.

[12] = tested on: PA-1; assay type: functional, cell-based;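 note: IC50 for suppression of PA-1 cell proliferation, determined with a cell viability read-out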
Description: SANGER: Inhibition of human PA-1 cell growth in a cell viability assay.

[13] = tested on: CAL-39; assay type: functional, cell-based;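 note: cell viability assay measuring growth inhibition of CAL-39 cells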
Description: SANGER: Inhibition of human CAL-39 cell growth in a cell viability assay.

[14] = tested on: BEN; assay type: functional, cell-based;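 note: growth inhibition of the BEN cell line, read out with a cell viability assay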
Description: SANGER: Inhibition of human BEN cell growth in a cell viability assay.

[15] = tested on: KYSE-270; assay type: functional, cell-based;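 note: cell growth inhibition measured with a viability assay in the human KYSE-270 line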
Description: SANGER: Inhibition of human KYSE-270 cell growth in a cell viability assay.

[16] = tested on: MHH-ES-1; assay type: functional, cell-based;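 note: cell growth inhibition measured by a cell viability assay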
Description: SANGER: Inhibition of human MHH-ES-1 cell growth in a cell viability assay.

[17] = tested on: BXPC-3; assay type: functional, cell-based;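 note: growth inhibition of human BxPC-3 cells, read out by a cell viability assay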
Description: SANGER: Inhibition of human BxPC-3 cell growth in a cell viability assay.

[18] = tested on: RO82-W-1; assay type: functional, cell-based;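 note: growth inhibition of human RO82-W-1 cells, measured with a cell viability assay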
Description: SANGER: Inhibition of human RO82-W-1 cell growth in a cell viability assay.

[19] = tested on: UMUC3; assay type: functional, cell-based;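 note: growth inhibition of human UM-UC-3 cells, read out with a cell viability assay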
Description: SANGER: Inhibition of human UM-UC-3 cell growth in a cell viability assay.

[20] = tested on: NCI-H1437; assay type: functional, cell-based;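 note: growth inhibition of human NCI-H1437 cells, read out by a cell viability assay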
Description: SANGER: Inhibition of human NCI-H1437 cell growth in a cell viability assay.

[21] = tested on: Hs-578T; assay type: functional, cell-based
Description: SANGER: Inhibition of human Hs-578-T cell growth in a cell viability assay.

[22] = tested on: SW948; assay type: functional, cell-based;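 note: growth inhibition of SW948 cells, read out with a cell viability assay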
Description: SANGER: Inhibition of human SW948 cell growth in a cell viability assay.

[23] = tested on: DOK; assay type: functional, cell-based;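 note: cell viability assay read-out, values reflect inhibition of cell growth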
Description: SANGER: Inhibition of human DOK cell growth in a cell viability assay.

[24] = tested on: HLE; assay type: functional, cell-based;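 note: growth inhibition of human HLE cells, read out by a cell viability assay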
Description: SANGER: Inhibition of human HLE cell growth in a cell viability assay.

[25] = tested on: SW1088; assay type: functional, cell-based;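 note: growth inhibition of human SW1088 cells, read out by a cell viability assay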
Description: SANGER: Inhibition of human SW1088 cell growth in a cell viability assay.

[26] = tested on: HuO-3N1; assay type: functional, cell-based;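 note: cell viability readout used to measure how strongly compounds suppress proliferation of human HuO-3N1 cells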
Description: SANGER: Inhibition of human HuO-3N1 cell growth in a cell viability assay.

[27] = tested on: NCI-H1651; assay type: functional, cell-based;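 note: Read-out is a cell viability assay, with IC50 expressing inhibition of NCI-H1651 cell growth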
Description: SANGER: Inhibition of human NCI-H1651 cell growth in a cell viability assay.

[28] = tested on: SW1710; assay type: functional, cell-based;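 note: growth inhibition of SW1710 cells, determined with a cell viability assay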
Description: SANGER: Inhibition of human SW1710 cell growth in a cell viability assay.

[29] = tested on: KYSE-70 cell line; assay type: functional, cell-based;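 note: cell viability assay read-out, with IC50 expressing suppression of KYSE-70 cell growth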
Description: SANGER: Inhibition of human KYSE-70 cell growth in a cell viability assay.

[30] = tested on: OE19; assay type: functional, cell-based;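 note: growth inhibition of OE19 cells, measured through a cell viability read-out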
Description: SANGER: Inhibition of human OE19 cell growth in a cell viability assay.

[31] = tested on: LCLC-97TM1; assay type: functional, cell-based;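 note: cell viability assay measuring growth inhibition of human LCLC-97TM1 cells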
Description: SANGER: Inhibition of human LCLC-97TM1 cell growth in a cell viability assay.

[32] = tested on: CAKI-1; assay type: functional, cell-based;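 note: growth inhibition of CAKI-1 cells, measured by a cell viability assay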
Description: SANGER: Inhibition of human CAKI-1 cell growth in a cell viability assay.

[33] = tested on: SW1463; assay type: functional, cell-based;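 note: growth inhibition of SW1463 cells, determined with a cell viability assay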
Description: SANGER: Inhibition of human SW1463 cell growth in a cell viability assay.

[34] = tested on: SK-N-AS; assay type: functional, cell-based;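 note: growth inhibition of human SK-N-AS cells, measured with a cell viability assay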
Description: SANGER: Inhibition of human SK-N-AS cell growth in a cell viability assay.

[35] = tested on: NCI-H1623; assay type: functional, cell-based;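 note: cell viability assay used as the read-out for growth inhibition of NCI-H1623 cells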
Description: SANGER: Inhibition of human NCI-H1623 cell growth in a cell viability assay.

[36] = tested on: NCI-H2347; assay type: functional, cell-based;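 note: growth inhibition of the cell line, read out with a cell viability assay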
Description: SANGER: Inhibition of human NCI-H2347 cell growth in a cell viability assay.

[37] = tested on: NCI-H2452; assay type: functional, cell-based;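 note: growth inhibition of NCI-H2452 cells, read out with a cell viability assay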
Description: SANGER: Inhibition of human NCI-H2452 cell growth in a cell viability assay.

[38] = tested on: NCI-H460; assay type: functional, cell-based;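 note: cell viability assay scoring growth inhibition of human NCI-H460 cells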
Description: SANGER: Inhibition of human NCI-H460 cell growth in a cell viability assay.

[39] = tested on: ABC-1; assay type: functional, cell-based;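 note: growth inhibition of human ABC-1 cells, read out by a cell viability assay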
Description: SANGER: Inhibition of human ABC-1 cell growth in a cell viability assay.

[40] = tested on: EGI-1; assay type: functional, cell-based;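 note: cell viability readout used to gauge growth inhibition of EGI-1 cells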
Description: SANGER: Inhibition of human EGI-1 cell growth in a cell viability assay.

[41] = tested on: T84; assay type: functional, cell-based;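 note: growth inhibition measured with a cell viability readout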
Description: SANGER: Inhibition of human T84 cell growth in a cell viability assay.

[42] = tested on: MOLT-13; assay type: functional, cell-based;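 note: IC50 for suppression of MOLT-13 cell growth, read out with a cell viability assay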
Description: SANGER: Inhibition of human MOLT-13 cell growth in a cell viability assay.

[43] = tested on: SK-MEL-28; assay type: functional, cell-based;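 note: growth inhibition of human SK-MEL-28 cells, read out with a cell viability assay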
Description: SANGER: Inhibition of human SK-MEL-28 cell growth in a cell viability assay.

[44] = tested on: PC-14; assay type: functional, cell-based;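 note: cell viability assay measuring inhibition of PC-14 cell growth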
Description: SANGER: Inhibition of human PC-14 cell growth in a cell viability assay.

[45] = tested on: TCC-SUP; assay type: functional, cell-based;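 note: growth inhibition of TCC-SUP cells, read out with a cell viability assay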
Description: SANGER: Inhibition of human TCCSUP cell growth in a cell viability assay.

[46] = tested on: NCI-H1693; assay type: functional, cell-based;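 note: growth inhibition of the human cell line, read out with a cell viability assay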
Description: SANGER: Inhibition of human NCI-H1693 cell growth in a cell viability assay.

[47] = tested on: NCI-H358; assay type: functional, cell-based;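 note: growth inhibition of NCI-H358 human cells, read out with a cell viability assay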
Description: SANGER: Inhibition of human NCI-H358 cell growth in a cell viability assay.

[48] = tested on: KYSE-140; assay type: functional, cell-based;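 note: cell viability assay measuring growth inhibition in human KYSE-140 cells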
Description: SANGER: Inhibition of human KYSE-140 cell growth in a cell viability assay.

[49] = tested on: HuP-T4; assay type: functional, cell-based;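 note: cell viability assay measuring how much HuP-T4 cell growth is inhibited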
Description: SANGER: Inhibition of human HuP-T4 cell growth in a cell viability assay.

[50] = tested on: U2OS; assay type: functional, cell-based, U-2-OS;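 note: growth inhibition of human U-2-OS cells, determined with a cell viability assay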
Description: SANGER: Inhibition of human U-2-OS cell growth in a cell viability assay.

[51] = tested on: J82; assay type: functional, cell-based;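 note: growth inhibition of J82 cells, read out with a cell viability assay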
Description: SANGER: Inhibition of human J82 cell growth in a cell viability assay.

[52] = tested on: DMS-273; assay type: functional, cell-based
Description: SANGER: Inhibition of human DMS-273 cell growth in a cell viability assay.

[53] = tested on: D-247MG; assay type: functional, cell-based
Description: SANGER: Inhibition of human D-247MG cell growth in a cell viability assay.

Compound `CC[C@]1(O)C[C@@H]2CN(CCc3c([nH]c4ccccc34)[C@@](C(=O)OC)(c3cc4c(cc3OC)N(C)[C@H]3[C@@](O)(C(=O)OC)[C@H](OC(C)=O)[C@]5(CC)C=CCN6CC[C@]43[C@@H]65)C2)C1` [VINBLASTINE] has an IC50 [1] of 2.14 nM, an IC50 [2] of 15.1 nM and an IC50 [3] of 17.6 nM. The IC50 [4] was 9.13 nM, the IC50 [5] was 12.4 nM and the IC50 [6] was 3.63 nM. For the same compound, the IC50 [7] was 2.08 nM, the IC50 [8] was 3.62 nM and the IC50 [9] was 29.3 nM. It also gave an IC50 [10] of 45.7 nM, an IC50 [11] of 31.5 nM and an IC50 [12] of 8.09 nM. It also gave an IC50 [13] of 5.11 nM, an IC50 [14] of 81.2 nM and an IC50 [15] of 9.63 nM. It also gave an IC50 [16] of 5.13 nM, an IC50 [17] of 8.01 nM and an IC50 [18] of 5.57 nM. It also gave an IC50 [19] of 5.11 nM, an IC50 [20] of 7.76 nM and an IC50 [21] of 17.3 nM. It also gave an IC50 [22] of 76 nM, an IC50 [23] of 4.2 nM and an IC50 [24] of 4.23 nM. It also gave an IC50 [25] of 17 nM, an IC50 [26] of 4.83 nM and an IC50 [27] of 23 nM. It also gave an IC50 [28] of 5.61 nM, an IC50 [29] of 48.4 nM and an IC50 [30] greater than 100 nM. It also gave an IC50 [31] of 5.49 nM, an IC50 [32] of 24.6 nM and an IC50 [33] of 69.7 nM. For the same compound, the IC50 [34] was 8.67 nM, the IC50 [35] was greater than 100 nM and the IC50 [36] was greater than 100 nM. The IC50 [37] was 9.59 nM, the IC50 [38] was 46.4 nM and the IC50 [39] was 15.5 nM. For the same compound, the IC50 [40] was 10.8 nM, the IC50 [41] was greater than 100 nM and the IC50 [42] was 5.6 nM. The IC50 [43] was 17 nM, the IC50 [44] was 3.53 nM and the IC50 [45] was 23.6 nM. It also gave an IC50 [46] of 78.2 nM, an IC50 [47] of 37 nM and an IC50 [48] of 44.9 nM. For the same compound, the IC50 [49] was 43.2 nM, the IC50 [50] was 25.7 nM and the IC50 [51] was 68.5 nM. The IC50 [52] was 3.4 nM and the IC50 [53] was 6.98 nM.

`CCCS(=O)(=O)Nc1ccc(F)c(C(=O)c2c[nH]c3ncc(Cl)cc23)c1F` [PLX-4720] gave an IC50 [1] of 8020 nM, an IC50 [2] greater than 10000 nM and an IC50 [3] greater than 10000 nM. It also gave an IC50 [4] greater than 10000 nM, an IC50 [5] greater than 10000 nM and an IC50 [6] greater than 10000 nM. It also gave an IC50 [7] greater than 10000 nM, an IC50 [8] greater than 10000 nM and an IC50 [9] greater than 10000 nM. It also gave an IC50 [10] greater than 10000 nM, an IC50 [11] greater than 10000 nM and an IC50 [12] of 2730 nM. It also gave an IC50 [13] greater than 10000 nM, an IC50 [14] greater than 10000 nM and an IC50 [15] greater than 10000 nM. It also gave an IC50 [16] greater than 10000 nM, an IC50 [17] greater than 10000 nM and an IC50 [18] greater than 10000 nM. For the same compound, the IC50 [19] was greater than 10000 nM, the IC50 [20] was greater than 10000 nM and the IC50 [21] was greater than 10000 nM. It also gave an IC50 [22] greater than 10000 nM, an IC50 [23] greater than 10000 nM and an IC50 [24] greater than 10000 nM. For the same compound, the IC50 [25] was greater than 10000 nM, the IC50 [26] was 2880 nM and the IC50 [27] was greater than 10000 nM. It also gave an IC50 [28] greater than 10000 nM, an IC50 [29] greater than 10000 nM and an IC50 [30] greater than 10000 nM. The IC50 [31] was greater than 10000 nM, the IC50 [32] was greater than 10000 nM and the IC50 [33] was greater than 10000 nM. The IC50 [34] was greater than 10000 nM, the IC50 [35] was greater than 10000 nM and the IC50 [36] was greater than 10000 nM. The IC50 [37] was greater than 10000 nM, the IC50 [38] was greater than 10000 nM and the IC50 [39] was greater than 10000 nM. It also gave an IC50 [40] greater than 10000 nM, an IC50 [41] greater than 10000 nM and an IC50 [42] greater than 10000 nM. It also gave an IC50 [43] of 1050 nM, an IC50 [44] greater than 10000 nM and an IC50 [45] greater than 10000 nM. It also gave an IC50 [46] greater than 10000 nM, an IC50 [47] of 2920 nM and an IC50 [48] greater than 10000 nM. It also gave an IC50 [49] greater than 10000 nM, an IC50 [50] greater than 10000 nM and an IC50 [51] greater than 10000 nM. For the same compound, the IC50 [52] was greater than 10000 nM and the IC50 [53] was greater than 10000 nM.
